# Measurements: patent US10933032B2, “Methods for the treatment of cancer using coenzyme Q10 combination therapies” (Berg LLC, priority 2013, dated 2021)
# How the values were obtained:
# [1] = tested on: SCC, Squamous cell carcinoma; assay: Induction of early apoptosis (Bcl-2, annexin V, or caspase activation); assay type: cell-based; settings: SKIN: SCC
# Procedure: (§1) The effects of Coenzyme Q10 treatment on a variety of oncogenic and normal cell lines were examined and compared. The sensitivity of cells to Coenzyme Q10 was assessed by monitoring induction of apoptosis. CoQ10 treatment of cells was carried out as described in detail below in the Materials and Methods. Induction of apoptosis was assessed in the treated cells by monitoring indicators of early apoptosis (e.g., Bcl-2 expression, caspase activation and by using annexin V assays) as described below. From these studies, the minimal CoQ10 dosage, e.g., concentration of CoQ10 and time of treatment, required to induce apoptosis in the panel of cell lines was determined.
# (§2) Cells were cultured in T-75 flasks with relevant medium supplemented with 10% Fetal Bovine Serum (FBS), 1% PSA (penicillin, streptomycin, amphotericin B) (Invitrogen and Cellgro) in a 37° C. incubator with 5% CO2 levels until 70-80% confluence was reached. To harvest cells for treatment, flasks were primed with 1 mL Trypsin, aspirated, trypsinized with an additional 3 mL, and incubated at 37° C. for 3-5 minutes. Cells were then neutralized with an equal volume of media and the subsequent solution was centrifuged at […] for 8 minutes. The supernatant was aspirated and the cells were resuspended with 8.5 ml of media. A mixture of 500 ul of the resuspension and 9.5 ml of […] was read twice by a coulter counter and the appropriate number of cells to be seeded into each dish was determined. Control and concentration ranging from 0-200 μM groups were examined in triplicate. From a 500 μM CoQ-10 stock solution, serial dilutions were performed to achieve desired experimental concentration in appropriate dishes. Dishes were incubated in a 37° C. incubator with 5% CO2 levels for 0-72 hours depending on cell type and experimental protocol.
# (§3) Following cell treatment incubation period was complete, protein isolation was performed. Dishes of all treatment groups were washed twice with 2 ml, and once with 1 ml of ice cold 1× Phosphate Buffered Saline (PBS). The PBS was aspirated from the dishes after the initial 2 washes only. Cells were gently scraped and collected into microcentrifuge tubes using the final volume from the third wash and centrifuged at 10,000 rpm for 10 minutes. After centrifugation, the supernatant was aspirated and the pellet was lysed with 50 uL of lysis buffer (1 uL of protease and phosphotase inhibitor for every 100 uL of lysis buffer). Samples were then frozen overnight at −20° C.
# (§4) After the cell treatment incubation period was complete, protein isolation was performed. Flasks of all treatment groups were washed twice with 5 mL, and once with 3 mL of ice cold 1×PBS. The PBS was aspirated from the flasks after the first 2 washes only. Cells were gently scraped and collected into 15 mL centrifuge tubes using the final volume from the third wash and centrifuged for at 10,000 rpm for 10 minutes. After centrifugation, the supernatant was aspirated and the pellet was lysed with an appropriate amount of lysis buffer (1 uL of protease and phosphotase inhibitor for every 100 uL of lysis buffer). Lysis buffer volume was dependent on pellet size. Samples were transferred in microcentrifuge tubes and frozen overnight at −20° C.
# (§5) Samples were thawed at […] and sonicated to ensure homogenization the day following protein isolation. Protein quantification was performed using the micro BCA protein assay kit (Pierce). To prepare samples for Immuno-blotting, a 1:19 solution of betamercaptoethanol (Sigma) to sample buffer (Bio-Rad) was prepared. Samples were diluted 1:1 with the betamercaptoethanol-sample buffer solution, boiled at 95° C. for 5 minutes, and frozen overnight at −20° C.
# (§6) The volume of sample to load per well was determined using the raw mean concentration of protein obtained from the BCA protein assay. Approximately 30-60 μg of protein were loaded for each treatment time point. […]
# [2] = tested on: Keratinocytes (Heka, Hekn); assay: as above; assay type: cell-based; settings: SKIN: Keratinocytes (Heka, Hekn)
# Procedure: as §1, §2, §3, §4, §5, §6
# PaCa2 = assay: as above; assay type: cell-based; settings: PANCREAS: PaCa2
# Procedure: as §1, §2, §3, §4, §5, §6
# Hep3B = assay: as above; assay type: cell-based; settings: LIVER: Hep3B
# Procedure: as §1, §2, §3, §4, §5, §6
# ZR-75 = assay: as above; assay type: cell-based; settings: BREAST: ZR-75
# Procedure: as §1, §2, §3, §4, §5, §6
# cells = assay: Relative timing of CoQ10 and chemotherapeutic agents, cell killing in vitro (Example 7); assay type: cell-based; settings: Example 7, written in present tense
# Procedure: Using the methods in Example 6, cells are tested to determine if the relative timing of treatment of cells with CoQ10 and chemotherapeutic agents has an effect on cell killing, e.g., by promotion of apoptosis, induction of tumor lysis, inhibition of cell proliferation.
# Briefly, cells are cultured as in Example 6. Cells are treated with CoQ10 and chemotherapeutic agents, either alone or in combination, or with appropriate vehicle controls. For the cells treated with both CoQ10 and chemotherapeutic agents, the cells are contacted with the CoQ10 and chemotherapeutic agents in various sequences. Various concentrations of CoQ10 and chemotherapeutic agents are used. Various treatment times are also used.
# After treatment with CoQ10 and chemotherapy as indicated, cells are harvested and assayed for viability and apoptosis using the methods provided above. […] The metabolic switch effectuated by CoQ10 in cancer cells is associated with induction of a novel integrated signaling cross-talk involving TP53, Bcl-2/Bax and VEGF that results in the recapitulation of apoptotic pathways.
# [3] = tested on: MIAPaCa2 pancreatic cancer cells; assay: Proliferation assay (CFSE, flow cytometry); assay type: cell-based, human; settings: MIAPaca-2; CoQ10 with gemcitabine; FIG. 13
# Procedure: FIG. 13 is a graph showing results from proliferation assay in which MIAPaCa2 pancreatic cancer cells were treated with gemcitabine alone or in combination with CoQ10 prior to assessment of proliferation via flow cytometric analysis using the cell tracer dye CFSE which stains live cells. Values are normalized to the number of cells treated with neither CoQ10 nor the chemotherapeutic agent.
# Without being bound by mechanism, it is proposed that CoQ10 effectuates a metabolic switch from glycolysis towards enhanced mitochondrial oxidative phosphorylation resulting in the recapitulation of apoptosis in cancer. The effects of CoQ10 were investigated to determine if pretreatment with CoQ10 results in mitochondrial priming, thereby augmenting the cytotoxic effect of standard of care chemotherapeutic agents. MIAPaCa-2 human pancreatic cancer cells were either (a) pretreated with CoQ10 prior to treatment with gemcitabine or (b) co-treated with CoQ10 and gemcitabine.
# [4] = tested on: normal cells, including keratinocytes and dermal fibroblasts; assay: Proliferation and migration of normal cells; assay type: cell-based
smiles,measurement,setting,value
"COC1=C(OC)C(=O)C(C/C=C(\C)CC/C=C(\C)CC/C=C(\C)CC/C=C(\C)CC/C=C(\C)CC/C=C(\C)CC/C=C(\C)CC/C=C(\C)CC/C=C(\C)CCC=C(C)C)=C(C)C1=O [CoQ10, Coenzyme Q10]","Indication of Early apoptosis (Bcl-2, annexin V, or caspase activation)",[1],Very Strong
same,"Minimal CoQ10 concentration required for induction of early apoptosis, Concentration",[1],25 µM
same,"Minimal treatment time required for induction of early apoptosis, Time",[1],24 h
same,"Indication of Early apoptosis (Bcl-2, annexin V, or caspase activation)",[2],None
same,"Indication of Early apoptosis (Bcl-2, annexin V, or caspase activation)",PaCa2,Very Strong
same,"Minimal CoQ10 concentration required for induction of early apoptosis, Concentration",PaCa2,25 µM
same,"Minimal treatment time required for induction of early apoptosis, Time",PaCa2,24 h
same,"Indication of Early apoptosis (Bcl-2, annexin V, or caspase activation)",Hep3B,Very Strong
same,"Minimal CoQ10 concentration required for induction of early apoptosis, Concentration",Hep3B,50 µM
same,"Minimal treatment time required for induction of early apoptosis, Time",Hep3B,24 h
same,"Indication of Early apoptosis (Bcl-2, annexin V, or caspase activation)",ZR-75,Slight
same,"Minimal CoQ10 concentration required for induction of early apoptosis, Concentration",ZR-75,200 µM
same,"Minimal treatment time required for induction of early apoptosis, Time",ZR-75,72 h
same,"Cell killing, pretreatment with CoQ10, discontinuation, then chemotherapy",cells,also effective in cell killing
same,"Cell killing, pretreatment with CoQ10 followed by concurrent CoQ10 and chemotherapy",cells,effective in cell killing
same,"Cell killing, pretreatment with CoQ10 prior to chemotherapy",cells,more effective in cell killing than co-treatment with CoQ10 and chemotherapy or treatment with CoQ10 after chemotherapy
same,Proliferation vs gemcitabine alone,[3],decreased proliferation
same,Proliferation and migration in normal cells,[4],increased proliferation and migration
